Data as given in US20170333112A1, “Optimizing Total Energy Delivered in Nanosecond Pulses for Triggering Apoptosis in Cultured Cells” (Pulse Biosciences, Inc., priority 2016, published 2017).

What was measured:
[1] = system: McA-RH7777 cells; experiment: ATP released from cells after treatment (FIG. 10); assay type: cell-based, rat
Description: (§1) FIG. 10 includes charts showing ATP released from MCA205, McA-RH7777, and Jurkat E6-1 cells at different numbers of pulses.

[2] = system: MCA205 cells; experiment: ATP released from cells after treatment (FIG. 10); assay type: cell-based, murine
Description: as §1

[3] = higher concentration (100 μM), rank among treatment groups (NPS 15 J/mL highest)
[4] = both high and low concentrations (4 and 10 μM)

With `COc1cccc2c1C(=O)c1c(O)c3c(c(O)c1C2=O)C[C@@](O)(C(=O)CO)C[C@@H]3O[C@H]1C[C@H](N)[C@H](O)[C@H](C)O1` [doxorubicin] the ATP released [1, 3] was “second highest amount of ATP”, the “ATP levels compared with untreated cells” value ([2]; 100 μM) was “significantly higher” and the ATP released [2, 3] was “second highest amount of ATP”.
For `O=C1c2c(O)ccc(O)c2C(=O)c2c(NCCNCCO)ccc(NCCNCCO)c21` [mitoxantrone], the ATP released [1, 4] was “comparatively small amount ATP” and the ATP released [2, 4] was “comparatively small amount ATP”.
